From US6706702B2, “Aryl fused azapolycyclic compounds” (Pfizer Inc., priority 1998, dated 2004) come the findings set out here.

For orientation: melting point means the temperature of the solid-liquid transition. In turn, `Cl.Fc1ccc2c(c1)CC1CC2CN(Cc2ccccc2)C1` (stereo not shown) showed a melting point of 202 to 203 °C.

With `Cl.FC(F)Oc1ccc2c(c1)CC1CNCC2C1` (stereo not shown), the melting point fell in the range of 230 to 234 °C.

`Cl.c1c2c(cc3c1OCO3)C1CNCC(C2)C1` (stereo not shown) returned a melting point of 241 to 243 °C.

With `COc1ccc2c(c1)CC1CNCC2C1.Cl` (stereo not shown), the melting point fell in the range of 253.5 to 258 °C.

Consider `COc1cccc2c1CC1CNCC2C1.Cl` (stereo not shown), for which the melting point is 272 to 274 °C.

`Cl.O=[N+]([O-])c1ccc2c(c1)C1CNCC(C2)C1` (stereo not shown): the melting point was in the range of 215 to 220 °C.

As for `Cl.c1cncc(-c2ccc3c(c2)CC2CNCC3C2)c1` (stereo not shown), the melting point fell in the range of 240 to 242 °C.
